Experiment [1] deals with HeLa. Briefly: Cytotoxicity against human HeLa cells after 4 days by MTT assay. Particulars: 96 h. Type of experiment: functional, cell-based. Background: Formazan colour is commonly taken as a measure of viable cells.
The next experiment has as its system HCT-29. Briefly: Cytotoxicity against human HCT29 cells after 4 days by MTT assay. Type of experiment: functional, cell-based. Particulars: HCT-29, 96 h.
For another experiment, the system named is DU-145. Briefly: Cytotoxicity against human DU145 cells after 4 days by MTT assay. The format is functional, cell-based. To be noted: DU-145, 96 h.
In the next experiment the test system is MDA-MB-231. Briefly: Cytotoxicity against human MDA-MB-231 cells after 4 days by MTT assay. To be noted: MDA-MB-231, 96 h. The format is functional, cell-based.
A further experiment relates to HL-60. Put plainly: Cytotoxicity against human HL60 cells after 4 days by MTT assay. The format is functional, cell-based. To be noted: HL-60, 96 h.
Experiment [2] concerns the target Poly [ADP-ribose] polymerase 1 (Homo sapiens) (UniProt P09874). Put plainly: Inhibition of PARP1.
Experiment [3] concerns HeLa. Briefly: Cell cycle arrest in human HeLa cells assessed as enhanced ratio of cell death at 10 umol after 72 hrs using propidium iodide staining by flow cytometry relative to control. Type of experiment: functional.
Experiment [4] relates to HeLa. Briefly: Cell cycle arrest in human HeLa cells assessed as fold increase in G1 phase at 10 umol after 36 hrs using propidium iodide staining by flow cytometry relative to control. Type of experiment: functional. (In flow cytometry, cells or beads pass a laser one at a time.)

pIC50: −log10 of the molar value. Active and inactive are the calls of the source. No cut-off for these calls is given here.

Sequence of Poly [ADP-ribose] polymerase 1 (Homo sapiens) (P09874 whole entry): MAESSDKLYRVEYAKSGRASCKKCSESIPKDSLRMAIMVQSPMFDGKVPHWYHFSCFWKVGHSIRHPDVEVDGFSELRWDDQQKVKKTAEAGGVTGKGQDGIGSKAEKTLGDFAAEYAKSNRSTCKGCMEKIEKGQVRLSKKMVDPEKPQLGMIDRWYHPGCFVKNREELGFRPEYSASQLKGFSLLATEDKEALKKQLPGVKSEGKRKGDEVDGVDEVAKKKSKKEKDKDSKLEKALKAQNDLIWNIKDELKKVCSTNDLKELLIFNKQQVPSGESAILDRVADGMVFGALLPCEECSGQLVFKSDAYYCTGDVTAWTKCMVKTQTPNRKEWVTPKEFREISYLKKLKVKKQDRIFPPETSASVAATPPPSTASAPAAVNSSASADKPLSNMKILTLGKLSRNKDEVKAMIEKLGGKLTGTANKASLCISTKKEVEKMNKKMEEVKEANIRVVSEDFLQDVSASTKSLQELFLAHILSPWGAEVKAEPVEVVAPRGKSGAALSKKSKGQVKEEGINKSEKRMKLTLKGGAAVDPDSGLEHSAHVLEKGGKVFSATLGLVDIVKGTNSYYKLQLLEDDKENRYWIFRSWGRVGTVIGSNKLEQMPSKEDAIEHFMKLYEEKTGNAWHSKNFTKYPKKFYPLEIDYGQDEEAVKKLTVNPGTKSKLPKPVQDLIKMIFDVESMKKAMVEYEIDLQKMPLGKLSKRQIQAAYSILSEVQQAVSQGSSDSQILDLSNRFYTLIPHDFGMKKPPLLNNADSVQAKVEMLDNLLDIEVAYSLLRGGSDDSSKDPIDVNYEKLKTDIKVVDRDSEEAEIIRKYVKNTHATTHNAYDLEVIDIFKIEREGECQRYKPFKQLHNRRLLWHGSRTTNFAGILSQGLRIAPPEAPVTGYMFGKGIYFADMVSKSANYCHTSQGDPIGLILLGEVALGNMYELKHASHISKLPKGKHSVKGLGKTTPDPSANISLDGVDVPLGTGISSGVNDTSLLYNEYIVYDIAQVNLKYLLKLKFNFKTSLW

As to `O=C(c1ccc(-c2nc3ccccc3c(=O)[nH]2)cc1)N1CCN(S(=O)(=O)c2ccc([N+](=O)[O-])cc2)CC1`, the pIC50 – broadly, −log10 of the IC50, conventionally taken in molar units – is 4.70 with HeLa [1]; 5.59 in the experiment with HCT-29; 4.60 with DU-145; 4.90 in the experiment on MDA-MB-231; 5.70 in the experiment with HL-60. Also, the inhibition result in experiment [2] was “inactive”.
As for `O=C(c1ccc(-c2nc3ccccc3c(=O)[nH]2)cc1)N1CCN(S(=O)(=O)Cc2ccc(Cl)cc2)CC1`, the pIC50 is 5.36 with HeLa [1]; 4.90 in the experiment with HCT-29; 4.57 with DU-145; less than 4.30 in the experiment with MDA-MB-231; less than 4.30 in the experiment with HL-60. The Ratio in the experiment with HeLa [3] was 8.74. For the same molecule, the “fold change (FC)” value with HeLa [4] is 1.2.
With `COc1ccc(Cn2c(-c3ccc(C(=O)N4CCN(S(=O)(=O)c5ccc(OC)cc5)CC4)cc3)nc3ccccc3c2=O)cc1`, the pIC50 in the experiment with HeLa [1] is 4.78; in the experiment with HCT-29, 5.24; with DU-145, 5.24; in the experiment on MDA-MB-231, 5.00; in the experiment on HL-60, 5.42. Also, in the experiment on HeLa [3], the Ratio came out at 7.29. The “fold change (FC)” value in the experiment with HeLa [4] came to 1.18.
`COc1ccc(Cn2c(-c3ccc(C(=O)N4CCN(S(=O)(=O)c5ccccc5)CC4)cc3)nc3ccccc3c2=O)cc1`: the pIC50 is 5.54 with HeLa [1]; 5.07 with HCT-29; 5.60 in the experiment with DU-145; 5.38 in the experiment on MDA-MB-231; 5.59 in the experiment with HL-60. Besides, in the experiment with HeLa [3], the Ratio was determined as 6.83. Further, the “fold change (FC)” value in the experiment on HeLa [4] is recorded as 1.19.
Regarding `O=C(c1ccc(-c2nc3ccccc3c(=O)[nH]2)cc1)N1CCN(S(=O)(=O)C2CCCC2)CC1`, the pIC50 in the experiment on HeLa [1] was 4.95; with HCT-29, 4.89; in the experiment on DU-145 it was 5.32; in the experiment with MDA-MB-231, 4.83; in the experiment on HL-60 it was 4.95. In addition, in the experiment with HeLa [3], the Ratio is listed as 5.96. In the experiment on HeLa [4], the “fold change (FC)” value amounted to 1.2.
For the molecule `O=C(c1ccc(-c2nc3ccccc3c(=O)[nH]2)cc1)N1CCN(S(=O)(=O)Cc2ccccc2)CC1`, the pIC50 with HeLa [1] was 5.04; in the experiment with HCT-29 it was 5.64; in the experiment with DU-145, 5.11; in the experiment with MDA-MB-231, 4.80; in the experiment on HL-60 it was 4.73. Moreover, the Ratio with HeLa [3] turned out to be 7.04. In addition, the “fold change (FC)” value in the experiment on HeLa [4] was determined as 1.21. For the same molecule, in experiment [2], the inhibition result is “inactive”.
As for `O=C(c1ccc(-c2nc3ccccc3c(=O)[nH]2)cc1)N1CCN(S(=O)(=O)c2ccc(C(F)(F)F)cc2)CC1`, the pIC50 is 4.87 in the experiment with HeLa [1]; 4.67 with HCT-29; 4.83 with DU-145; 4.50 in the experiment on MDA-MB-231; 5.19 in the experiment on HL-60.
Taken in the same sequence, the figures for `O=C(c1ccc(-c2nc3ccccc3c(=O)[nH]2)cc1)N1CCN(S(=O)(=O)c2ccccc2C(F)(F)F)CC1` were 5.08, less than 4.30, 4.61, 5.26 and 4.85.
Taken in the same sequence, the figures for `CC(C)(C)OC(=O)N1CCN(C(=O)c2ccc(-c3nc4ccccc4c(=O)[nH]3)cc2)CC1` were 4.68, 4.68, less than 4.30, 5.07 and 4.81.

Values taken from ChEMBL document CHEMBL1817620, “Synthesis and cytotoxicity of 2-phenylquinazolin-4(3H)-one derivatives” (Eur J Med Chem, 2011).
